Laboratory results reported in ChEMBL document CHEMBL4507260 (2021).

Legend:
Settings in all cases: Compound concentration 1000.0 nM
[1] = target: Casein kinase I isoform alpha-like (Homo sapiens) (UniProt Q8N752)
[2] = target: Serine/threonine-protein kinase WNK1 (Homo sapiens) (UniProt Q9H4A3)
[3] = target: Activin receptor type-1B (Homo sapiens) (UniProt P36896)
[4] = target: Tyrosine-protein kinase ITK/TSK (Homo sapiens) (UniProt Q08881)
[5] = target: Serine/threonine-protein kinase DCLK3 (Homo sapiens) (UniProt Q9C098)
[6] = target: Cyclin-dependent kinase 2 (Homo sapiens) (UniProt P24941)
[7] = target: Tyrosine-protein kinase TXK (Homo sapiens) (UniProt P42681)
Tyrosine-protein kinase TXK (Homo sapiens), sequence (P42681 whole entry): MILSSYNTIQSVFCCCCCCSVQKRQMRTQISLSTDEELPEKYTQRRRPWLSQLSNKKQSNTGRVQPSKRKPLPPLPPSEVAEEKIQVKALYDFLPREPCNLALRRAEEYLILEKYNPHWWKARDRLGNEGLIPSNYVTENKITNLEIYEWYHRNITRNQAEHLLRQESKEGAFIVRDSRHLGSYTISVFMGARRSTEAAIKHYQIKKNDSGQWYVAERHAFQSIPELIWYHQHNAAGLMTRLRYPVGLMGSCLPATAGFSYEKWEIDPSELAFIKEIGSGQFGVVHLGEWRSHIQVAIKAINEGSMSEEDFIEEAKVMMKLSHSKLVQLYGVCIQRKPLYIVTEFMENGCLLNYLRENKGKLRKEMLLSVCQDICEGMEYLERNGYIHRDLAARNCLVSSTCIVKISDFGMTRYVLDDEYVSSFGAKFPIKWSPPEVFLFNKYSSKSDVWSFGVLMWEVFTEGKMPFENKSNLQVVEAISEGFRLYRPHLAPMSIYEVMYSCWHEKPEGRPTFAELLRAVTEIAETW

[8] = tested on: Tyrosine-protein kinase ABL1 (Homo sapiens), P00519 [M351T]
[9] = tested on: Mast/stem cell growth factor receptor Kit (Homo sapiens), P10721 [A829P]
[10] = target: SRSF protein kinase 3 (Homo sapiens) (UniProt Q9UPE1)
SRSF protein kinase 3 (Homo sapiens), sequence (Q9UPE1 whole entry): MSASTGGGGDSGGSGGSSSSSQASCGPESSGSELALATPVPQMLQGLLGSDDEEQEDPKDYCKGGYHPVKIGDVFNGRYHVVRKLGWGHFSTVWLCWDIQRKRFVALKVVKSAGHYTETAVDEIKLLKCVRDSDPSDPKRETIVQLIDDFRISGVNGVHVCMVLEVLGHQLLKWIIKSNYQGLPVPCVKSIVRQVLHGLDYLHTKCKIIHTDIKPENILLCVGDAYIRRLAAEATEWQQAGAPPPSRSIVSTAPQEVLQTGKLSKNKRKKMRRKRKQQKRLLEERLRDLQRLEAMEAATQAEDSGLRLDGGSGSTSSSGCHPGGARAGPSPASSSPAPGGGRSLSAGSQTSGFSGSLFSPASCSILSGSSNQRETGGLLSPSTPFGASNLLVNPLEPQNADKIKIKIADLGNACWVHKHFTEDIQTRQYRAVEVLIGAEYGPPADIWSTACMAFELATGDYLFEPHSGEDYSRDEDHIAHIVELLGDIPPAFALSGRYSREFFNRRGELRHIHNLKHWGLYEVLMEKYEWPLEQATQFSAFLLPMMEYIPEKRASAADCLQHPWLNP

[11] = target: Mitogen-activated protein kinase kinase kinase 6 (Homo sapiens) (UniProt O95382)
[12] = tested on: Mast/stem cell growth factor receptor Kit (Homo sapiens), P10721 [V559D,V654A]
[13] = target: Receptor tyrosine-protein kinase erbB-3 (Homo sapiens) (UniProt P21860)
[14] = tested on: Tyrosine-protein kinase ABL1 (Homo sapiens), P00519 [H396P]
[15] = target: Serine/threonine-protein kinase WNK4 (Homo sapiens) (UniProt Q96J92)
Serine/threonine-protein kinase WNK4 (Homo sapiens), sequence (Q96J92 whole entry): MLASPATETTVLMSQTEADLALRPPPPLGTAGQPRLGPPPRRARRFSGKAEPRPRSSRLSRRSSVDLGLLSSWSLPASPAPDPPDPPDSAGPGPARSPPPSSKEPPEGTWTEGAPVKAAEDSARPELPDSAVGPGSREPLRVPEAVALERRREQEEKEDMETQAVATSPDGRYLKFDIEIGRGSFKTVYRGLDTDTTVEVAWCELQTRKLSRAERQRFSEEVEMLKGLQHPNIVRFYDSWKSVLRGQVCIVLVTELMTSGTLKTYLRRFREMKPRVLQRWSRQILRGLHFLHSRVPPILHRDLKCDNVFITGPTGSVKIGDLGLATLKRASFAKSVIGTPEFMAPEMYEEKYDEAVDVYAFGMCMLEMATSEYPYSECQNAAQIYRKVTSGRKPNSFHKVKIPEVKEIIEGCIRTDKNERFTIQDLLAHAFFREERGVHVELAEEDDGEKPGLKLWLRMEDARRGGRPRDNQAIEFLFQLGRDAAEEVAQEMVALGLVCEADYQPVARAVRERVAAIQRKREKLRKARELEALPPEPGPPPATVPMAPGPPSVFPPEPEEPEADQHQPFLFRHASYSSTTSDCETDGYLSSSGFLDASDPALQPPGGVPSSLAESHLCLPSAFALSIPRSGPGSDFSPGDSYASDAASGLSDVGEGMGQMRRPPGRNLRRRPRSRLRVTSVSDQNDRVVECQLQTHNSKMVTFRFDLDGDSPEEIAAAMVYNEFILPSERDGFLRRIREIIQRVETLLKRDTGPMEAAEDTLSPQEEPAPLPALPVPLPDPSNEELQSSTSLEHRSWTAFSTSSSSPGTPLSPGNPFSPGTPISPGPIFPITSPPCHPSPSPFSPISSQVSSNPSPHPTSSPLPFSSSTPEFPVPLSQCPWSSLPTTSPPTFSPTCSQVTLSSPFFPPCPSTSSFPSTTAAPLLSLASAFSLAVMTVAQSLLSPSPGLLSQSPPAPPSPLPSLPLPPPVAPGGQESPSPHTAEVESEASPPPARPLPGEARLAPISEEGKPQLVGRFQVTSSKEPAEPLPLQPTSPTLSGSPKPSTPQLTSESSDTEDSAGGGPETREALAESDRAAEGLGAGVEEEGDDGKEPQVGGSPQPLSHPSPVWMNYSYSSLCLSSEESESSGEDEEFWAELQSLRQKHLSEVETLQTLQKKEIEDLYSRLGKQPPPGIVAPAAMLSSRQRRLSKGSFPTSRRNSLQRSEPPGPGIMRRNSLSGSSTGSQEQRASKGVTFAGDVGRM

[16] = target: TGF-beta receptor type-1 (Homo sapiens) (UniProt P36897)
[17] = target: Homeodomain-interacting protein kinase 2 (Homo sapiens) (UniProt Q9H2X6)
[18] = target: Serine/threonine-protein kinase PLK1 (Homo sapiens) (UniProt P53350)
[19] = target: Hormonally up-regulated neu tumor-associated kinase (Homo sapiens) (UniProt P57058)
[20] = target: Fibroblast growth factor receptor 2 (Homo sapiens) (UniProt P21802)
[21] = target: Tyrosine-protein kinase BTK (Homo sapiens) (UniProt Q06187)
[22] = target: Dual specificity mitogen-activated protein kinase kinase 2 (Homo sapiens) (UniProt P36507)
[23] = target: Serine/threonine-protein kinase D1 (Homo sapiens) (UniProt Q15139)
[24] = target: Serine/threonine-protein kinase PRP4 homolog (Homo sapiens) (UniProt Q13523)
[25] = target: NUAK family SNF1-like kinase 2 (Homo sapiens) (UniProt Q9H093)
[26] = target: BMP-2-inducible protein kinase (Homo sapiens) (UniProt Q9NSY1)
[27] = target: Cyclin-dependent kinase 17 (Homo sapiens) (UniProt Q00537)
Cyclin-dependent kinase 17 (Homo sapiens), sequence (Q00537 whole entry, looked up): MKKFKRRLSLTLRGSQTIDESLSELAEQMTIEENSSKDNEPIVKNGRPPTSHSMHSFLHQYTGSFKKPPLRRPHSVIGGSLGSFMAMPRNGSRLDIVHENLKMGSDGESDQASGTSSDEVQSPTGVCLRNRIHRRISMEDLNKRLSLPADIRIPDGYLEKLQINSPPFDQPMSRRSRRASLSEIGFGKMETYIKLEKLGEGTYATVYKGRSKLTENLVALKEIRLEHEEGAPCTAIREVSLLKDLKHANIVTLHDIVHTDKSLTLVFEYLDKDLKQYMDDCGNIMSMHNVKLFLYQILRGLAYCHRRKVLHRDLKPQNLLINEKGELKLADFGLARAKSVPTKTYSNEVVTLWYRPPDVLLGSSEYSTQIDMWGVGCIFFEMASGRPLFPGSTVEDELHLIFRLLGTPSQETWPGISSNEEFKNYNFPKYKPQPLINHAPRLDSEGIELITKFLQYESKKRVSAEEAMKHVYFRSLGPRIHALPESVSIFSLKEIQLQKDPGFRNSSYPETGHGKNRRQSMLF

[28] = target: Ribosomal protein S6 kinase alpha-4 (Homo sapiens) (UniProt O75676)
[29] = target: Serine/threonine-protein kinase PAK 6 (Homo sapiens) (UniProt Q9NQU5)
[30] = tested on: Tyrosine-protein kinase ABL1 (Homo sapiens), P00519 [F317I]
[31] = target: Ribosomal protein S6 kinase alpha-6 (Homo sapiens) (UniProt Q9UK32)
[32] = target: Protein kinase C theta type (Homo sapiens) (UniProt Q04759)
[33] = target: cGMP-dependent protein kinase 1 (Homo sapiens) (UniProt Q13976)
[34] = target: RAC-gamma serine/threonine-protein kinase (Homo sapiens) (UniProt Q9Y243)
[35] = tested on: Phosphatidylinositol 4,5-bisphosphate 3-kinase catalytic subunit alpha isoform (Homo sapiens), P42336 [C420R]
[36] = target: Dual specificity protein kinase CLK1 (Homo sapiens) (UniProt P49759)
[37] = target: Phosphatidylinositol 4,5-bisphosphate 3-kinase catalytic subunit alpha isoform (Homo sapiens) (UniProt P42336)
[38] = target: Ephrin type-A receptor 3 (Homo sapiens) (UniProt P29320)
[39] = target: Serine/threonine-protein kinase/endoribonuclease IRE1 (Homo sapiens) (UniProt O75460)
[40] = target: Tyrosine-protein kinase Fyn (Homo sapiens) (UniProt P06241)
Tyrosine-protein kinase Fyn (Homo sapiens), sequence (P06241 2-537 limits assumed): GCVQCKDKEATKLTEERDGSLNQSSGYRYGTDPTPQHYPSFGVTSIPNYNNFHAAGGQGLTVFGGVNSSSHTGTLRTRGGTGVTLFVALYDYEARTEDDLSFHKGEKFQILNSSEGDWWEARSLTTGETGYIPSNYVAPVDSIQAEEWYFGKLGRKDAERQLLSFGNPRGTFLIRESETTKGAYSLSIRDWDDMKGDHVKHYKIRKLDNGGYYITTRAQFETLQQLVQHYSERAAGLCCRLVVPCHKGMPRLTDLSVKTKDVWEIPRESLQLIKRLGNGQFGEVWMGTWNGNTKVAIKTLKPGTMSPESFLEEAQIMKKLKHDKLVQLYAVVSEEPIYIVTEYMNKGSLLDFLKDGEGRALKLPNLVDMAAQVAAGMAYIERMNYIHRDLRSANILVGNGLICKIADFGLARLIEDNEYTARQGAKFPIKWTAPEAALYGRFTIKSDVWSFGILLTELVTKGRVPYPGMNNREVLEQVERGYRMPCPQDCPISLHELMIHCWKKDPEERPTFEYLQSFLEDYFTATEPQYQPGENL

[41] = target: Serine/threonine-protein kinase PAK 4 (Homo sapiens) (UniProt O96013)
[42] = target: Testis-specific serine/threonine-protein kinase 1 (Homo sapiens) (UniProt Q9BXA7)
[43] = target: Non-receptor tyrosine-protein kinase TYK2 (Homo sapiens) (UniProt P29597)
[44] = target: Mitogen-activated protein kinase kinase kinase 15 (Homo sapiens) (UniProt Q6ZN16)
[45] = target: Phosphatidylinositol 3-kinase C2 domain-containing subunit gamma (Homo sapiens) (UniProt O75747)
Phosphatidylinositol 3-kinase C2 domain-containing subunit gamma (Homo sapiens), sequence (O75747 whole entry, the tested form may be a part): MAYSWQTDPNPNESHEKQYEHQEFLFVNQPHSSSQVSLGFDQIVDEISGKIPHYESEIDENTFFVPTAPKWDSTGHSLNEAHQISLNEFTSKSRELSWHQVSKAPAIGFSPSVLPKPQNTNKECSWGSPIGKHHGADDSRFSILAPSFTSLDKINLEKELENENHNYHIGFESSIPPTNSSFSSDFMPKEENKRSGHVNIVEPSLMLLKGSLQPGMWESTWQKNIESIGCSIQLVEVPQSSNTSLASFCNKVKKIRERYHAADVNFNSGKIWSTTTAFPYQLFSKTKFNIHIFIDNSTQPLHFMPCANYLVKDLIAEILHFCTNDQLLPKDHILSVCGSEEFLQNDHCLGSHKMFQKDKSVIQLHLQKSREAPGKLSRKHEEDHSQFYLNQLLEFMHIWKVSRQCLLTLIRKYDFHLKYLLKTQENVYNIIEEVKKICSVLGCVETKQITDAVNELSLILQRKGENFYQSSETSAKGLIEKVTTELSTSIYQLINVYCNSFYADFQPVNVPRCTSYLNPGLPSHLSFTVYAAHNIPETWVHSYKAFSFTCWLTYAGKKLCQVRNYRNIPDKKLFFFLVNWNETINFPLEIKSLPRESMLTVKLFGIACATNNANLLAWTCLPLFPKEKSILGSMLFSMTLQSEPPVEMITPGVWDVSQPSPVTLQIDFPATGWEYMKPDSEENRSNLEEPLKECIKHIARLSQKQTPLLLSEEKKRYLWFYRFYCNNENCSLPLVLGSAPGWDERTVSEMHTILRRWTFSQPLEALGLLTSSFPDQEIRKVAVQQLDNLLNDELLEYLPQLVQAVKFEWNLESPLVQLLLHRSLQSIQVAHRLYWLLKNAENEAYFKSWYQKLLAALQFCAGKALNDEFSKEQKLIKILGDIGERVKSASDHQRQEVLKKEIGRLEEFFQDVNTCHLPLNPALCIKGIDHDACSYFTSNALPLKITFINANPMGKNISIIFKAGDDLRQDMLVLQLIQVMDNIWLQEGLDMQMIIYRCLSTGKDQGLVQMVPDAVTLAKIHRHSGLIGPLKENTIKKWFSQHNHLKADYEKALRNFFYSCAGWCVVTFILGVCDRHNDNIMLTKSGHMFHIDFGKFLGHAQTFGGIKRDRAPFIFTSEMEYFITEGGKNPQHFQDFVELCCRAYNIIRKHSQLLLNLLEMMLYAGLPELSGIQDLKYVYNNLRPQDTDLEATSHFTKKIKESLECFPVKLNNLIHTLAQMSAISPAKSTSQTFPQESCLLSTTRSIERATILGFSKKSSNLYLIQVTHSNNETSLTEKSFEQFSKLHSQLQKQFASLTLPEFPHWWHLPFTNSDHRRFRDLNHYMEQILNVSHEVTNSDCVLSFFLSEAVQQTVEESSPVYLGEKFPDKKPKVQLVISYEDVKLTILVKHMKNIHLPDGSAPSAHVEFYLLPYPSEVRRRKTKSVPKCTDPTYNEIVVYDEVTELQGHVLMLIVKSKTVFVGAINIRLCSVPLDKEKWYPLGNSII

Compound `CSc1cccnc1N1CCN(Cc2nc3ccccc3[nH]2)CC1` [A-769] has a residual activity [1] of 100%, a residual activity [2] of 100% and a residual activity [3] of 100%. The residual activity [4] was 97%, the residual activity [5] was 100% and the residual activity [6] was 95%. The residual activity [7] was 100%, the residual activity [8] was 94% and the residual activity [9] was 100%. It also gave a residual activity [10] of 100%, a residual activity [11] of 92% and a residual activity [12] of 100%. The residual activity [13] was 90%, the residual activity [14] was 75% and the residual activity [15] was 91%. It also gave a residual activity [16] of 100%, a residual activity [17] of 62% and a residual activity [18] of 78%. The residual activity [19] was 100%, the residual activity [20] was 100% and the residual activity [21] was 79%. The residual activity [22] was 70%, the residual activity [23] was 100% and the residual activity [24] was 100%. The residual activity [25] was 100%, the residual activity [26] was 100% and the residual activity [27] was 100%. The residual activity [28] was 73%, the residual activity [29] was 100% and the residual activity [30] was 74%. It also gave a residual activity [31] of 94%, a residual activity [32] of 100% and a residual activity [33] of 100%. The residual activity [34] was 92%, the residual activity [35] was 100% and the residual activity [36] was 80%. For the same compound, the residual activity [37] was 69%, the residual activity [38] was 100% and the residual activity [39] was 70%. The residual activity [40] was 100%, the residual activity [41] was 100% and the residual activity [42] was 100%. For the same compound, the residual activity [43] was 100%, the residual activity [44] was 67% and the residual activity [45] was 95%.
Work on `c1ccc(N2CCN(Cc3nc4ccccc4[nH]3)CC2)nc1` [ABT-724] yielded a residual activity [1] of 100%, a residual activity [2] of 100% and a residual activity [3] of 85%. For the same compound, the residual activity [4] was 100%, the residual activity [5] was 93% and the residual activity [6] was 100%. It also gave a residual activity [7] of 95%, a residual activity [8] of 100% and a residual activity [9] of 100%. For the same compound, the residual activity [10] was 100%, the residual activity [11] was 98% and the residual activity [12] was 100%. The residual activity [13] was 91%, the residual activity [14] was 87% and the residual activity [15] was 100%. The residual activity [16] was 97%, the residual activity [17] was 26% and the residual activity [18] was 100%. The residual activity [19] was 100%, the residual activity [20] was 96% and the residual activity [21] was 96%. It also gave a residual activity [22] of 100%, a residual activity [23] of 95% and a residual activity [24] of 57%. It also gave a residual activity [25] of 100%, a residual activity [26] of 100% and a residual activity [27] of 100%. The residual activity [28] was 100%, the residual activity [29] was 100% and the residual activity [30] was 100%. It also gave a residual activity [31] of 100%, a residual activity [32] of 98% and a residual activity [33] of 100%. For the same compound, the residual activity [34] was 100%, the residual activity [35] was 100% and the residual activity [36] was 100%. For the same compound, the residual activity [37] was 100%, the residual activity [38] was 100% and the residual activity [39] was 100%. The residual activity [40] was 100%, the residual activity [41] was 93% and the residual activity [42] was 100%. It also gave a residual activity [43] of 100%, a residual activity [44] of 100% and a residual activity [45] of 100%.
